Laboratory results reported in patent US20240293430A1, “WITHAFERIN A AND IMMUNE CHECKPOINT BLOCKER COMBINATION THERAPIES” (University of South Florida, priority 2023, published 2024).

Legend:
LLC flank tumors = test: LLC syngeneic mouse model, tumor growth; assay type: in vivo, C57BL/6 mice; conditions: i.p. every other day, five treatments; WFA 5 mg/kg, α-PD-L1 200 μg/mouse
Description: FIGS. 5A-5G depict that WFA sensitizes flank tumors to α-PD-L1 therapy and targets immunosuppressive MDSCs and T-regs. (FIG. 5A) Establishment of LLC flank tumors and treatment schedule. (FIG. 5B) Tumor volume measurement in mm^3 and tumor weight at the endpoint of the experiment. (FIG. 5C) Change in the levels of ecto-CRT in tumors was measured using flow cytometry. (FIGS. 5D-5G) Flow cytometry was used to determine the change in immune cell infiltration in collected tumors. […] Moreover, WFA reduced the immunosuppressive T regs (FIG. 5F) and CD11b+Gr1+MDSC (FIG. 5G) populations. The means of two independent experiments ±SEM are shown, and the statistical significance was calculated using one-way ANOVA and a Fisher LSD post hoc test where * and #represent p<0.05 and ** and ##represent p<0.01. * Symbols refer to the difference between the vehicle control and WFA, while #refers to comparisons between the vehicle control and WFA+α-PD-L1 combination.
C57BL/6 mice were purchased from the Jackson Laboratory (Bar Harbor, ME, USA) and acclimated for a week. To establish the LLC syngeneic tumors, C57BL/6 mice were injected with a half million cells on the right flank and monitored until tumors were first palpable (2-3 mm diameter). […] Tumor volumes (mm^3) were calculated using the equation (length^2 x width/2), where the length is defined as the bigger tumor dimension. […]

[1] = tested on: ROS levels in NSCLC cell lines; test: ROS levels with ROS indicator CM-H2DCFDA; assay type: cell-based, mouse (LLC), human (H1650; conditions: 24 h; WFA 0.6 μM (LLC, H1650), 4 μM (A549); NAC 5 mM
[2] = tested on: ecto-CRT in LLC, H1650 and A549 cells; test: Ecto-CRT (cell surface calreticulin) by flow cytometry, NSCLC; assay type: cell-based, mouse (LLC), human (H1650; conditions: 48 h
Description: Cells were treated with WFA for 48 h then collected using Accutase cell detachment solution. […] (FIG. 2E) Bone marrow-derived DC were co-cultured with WFA-pretreated LLC cells (24 h) in a ratio 5:1 of DC:LLC cells for 24 h.
In vitro WFA-treated or control cells were collected using Accutase cell detachment solution and stained with FACS-diluted (PBS, 10% FBS, 2 mMEDTA) pre-titrated fluorophore conjugated or primary unconjugated antibody solutions (Table 1) for 30 min on ice in the dark. In case of fluorophore-conjugated antibodies, samples are washed and immediately acquired after adding DAPI viability dye, while samples stained with unconjugated antibodies are incubated with the proper secondary fluorophore-conjugated antibody for 30 min before washing and acquisition. For in vivo experiments, the processed tumor or spleen single cell suspensions were used for surface staining with the pre-titrated antibodies (Table 1) for 30 min on ice in the dark. To exclude the dead cells from the analysis, a fixable live/dead Zombie Aqua viability kit (Biolegend, San Diego, CA, USA) was used according to the manufacturer's protocol. Samples were then fixed using 2% PFA for 15 min then washed and stored at 4° C. before acquisition. […]

[3] = tested on: ecto-CRT in MC38 and HCT-116 colorectal cancer cell lines; test: Ecto-CRT by flow cytometry, colorectal cancer; assay type: cell-based, mouse (MC38), human (HCT-116)
Description: FIGS. 8A-8G depict that WFA induced ICD and PD-L1 upregulation in colorectal cancer cell lines. WFA increased the levels of ecto-CRT in the murine colorectal cancer cell line (FIG. 8A) MC-38 and human cell line (FIG. 8B) HCT-116. WFA increased the expression of PD-L1 in both (FIG. 8C) MC-38 and (FIG. 8D) HCT-116 cells. […] H1650 cells (at a higher density) were treated with a higher concentration of WFA (2 and 4 μM) to facilitate cell collection and protein isolation. The band density was quantified using Image J software and normalized to the housekeeping protein. The fold change from untreated control was averaged from two independent experiments ±SEM and one-way ANOVA was used to calculate the statistical significance. A Fisher LSD post hoc test was performed to compare the treatments to the control in (FIG. 8E) LLC, (FIG. 8F) H1650, (FIG. 8G) A549 cells. * p<0.05, ** p<0.01, *** p<0.001, **** p<0.0001.
In vitro WFA-treated or control cells were collected using Accutase cell detachment solution and stained with FACS-diluted (PBS, 10% FBS, 2 mMEDTA) pre-titrated fluorophore conjugated or primary unconjugated antibody solutions (Table 1) for 30 min on ice in the dark. […]

**Q.** With `CC1=C(CO)C(=O)O[C@@H]([C@@H](C)[C@H]2CC[C@H]3[C@@H]4C[C@H]5O[C@]56[C@@H](O)C=CC(=O)[C@]6(C)[C@H]4CC[C@]23C)C1` [WFA, Withaferin A] as the compound, how does the “tumor size / tumor growth” value (LLC flank tumors) read?
**A.** Its value is “non-significant reduction”.

**Q.** What about the ROS levels [1] of the same compound?
**A.** The ROS levels was “increased”.

**Q.** What about the ecto-CRT expression [2] of the same compound?
**A.** Its ecto-CRT expression is “increased”.

**Q.** What about the “levels of ecto-CRT” value [3] of the same compound?
**A.** The value was “increased”.
